Source: ChEMBL document CHEMBL2311374, “Anti-angiogenesis and immunomodulatory activities of an anti-tumor sesquiterpene bigelovin isolated from Inula helianthus-aquatica” (Eur J Med Chem, 2013)
The source made the active and inactive calls. The rule behind the calls is not given here.

Legend:
HMEC-1 [1] = experiment: Effect on cell adhesion gene expression in TNFalpha stimulated HMEC1 cells assessed as reduction in ICAM1 protern expression at 1000 or 3000 nM measured after 24 hrs by Western blotting; type: functional, cell-based; conditions: Homo sapiens
HMEC-1 [2] = experiment: Effect on cell adhesion gene expression in TNFalpha stimulated HMEC1 cells assessed as reduction in VCAM1 protern expression at 1000 or 3000 nM measured after 24 hrs by Western blotting; type: functional, cell-based; conditions: Homo sapiens
HMEC-1 [3] = experiment: Effect on cell adhesion gene expression in TNFalpha stimulated HMEC1 cells assessed as reduction in E-selectin protern expression at 1000 or 3000 nM measured after 24 hrs by Western blotting; type: functional, cell-based; conditions: Homo sapiens
[4] = Cytotoxicity against human HMEC1 cells at 1000 or 3000 nM measured after 12 hrs by MTT assay; type: cell-based; conditions: hmec-1, 12 h
HMEC-1 [5] = experiment: Effect on cell adhesion gene expression in TNFalpha stimulated HMEC1 cells assessed as reduction in E-selectin mRNA level at 1000 or 3000 nM measured after 12 hrs by real-time PCR analysis; type: functional, Homo sapiens; design: scale not given: the % may be the effect or the level left
HMEC-1 [6] = experiment: Effect on cell adhesion gene expression in TNFalpha stimulated HMEC1 cells assessed as reduction in VCAM1 mRNA level at 1000 or 3000 nM measured after 12 hrs by real-time PCR analysis; type: functional, Homo sapiens; design: scale not given: the % may be the effect or the level left
[7] = Cytotoxicity against human HMEC1 cells; type: cell-based; conditions: hmec-1
HMEC-1 [8] = experiment: Effect on cell adhesion gene expression in TNFalpha stimulated HMEC1 cells assessed as reduction in ICAM1 mRNA level at 1000 or 3000 nM measured after 12 hrs by real-time PCR analysis; type: functional, Homo sapiens; design: scale not given: the % may be the effect or the level left
PBMC [9] = experiment: Immunomodulatory effect in phytohemagglutininin-activated human PBMC assessed as inhibition of IL12 production measured after 24 hrs by ELISA; type: functional, cell-based
PBMC [10] = experiment: Immunomodulatory effect in phytohemagglutininin-activated human PBMC assessed as inhibition of IL2 production measured after 24 hrs by ELISA; type: functional, cell-based
PBMC [11] = experiment: Immunomodulatory effect in phytohemagglutininin-activated human PBMC assessed as inhibition of INFgamma production measured after 24 hrs by ELISA; type: functional, cell-based
PBMC [12] = experiment: Cytotoxicity against human PBMC at 62.5 to 250 nM for 72 hrs by XTT assay; type: cell-based; conditions: 0.25 µM
PBMC [13] = experiment: Immunomodulatory effect in phytohemagglutininin-activated human PBMC assessed as inhibition of TNFalpha production measured after 24 hrs by ELISA; type: functional, cell-based
PBMC [14] = experiment: Immunomodulatory effect in phytohemagglutininin-activated human PBMC assessed as stimulation of cell proliferation at 62.5 to 250 nM measured after 72 hrs; type: functional, cell-based
HMEC-1 [15] = experiment: Antimigratory activity against HMEC1 cells assessed as decrease in cell motility measured after 24 hrs by scratch wound assay; type: functional, cell-based; conditions: Homo sapiens
HMEC-1 [16] = experiment: Inhibition of HMEC1 cells growth measured after 48 hrs; type: functional, cell-based; conditions: Homo sapiens, HMEC-1, 48 h
HMEC-1 [17] = experiment: Inhibition of HMEC1 cells growth measured after 48 hrs by MTT assay; type: functional, cell-based; conditions: Homo sapiens, HMEC-1, 48 h
HMEC-1 [18] = experiment: Inhibition of cell proliferation of HMEC1 cells assessed as [methyl-3H] thymidine incorporation measured after 48 hrs; type: functional, cell-based; conditions: Homo sapiens
Danio rerio [19] = species: Danio rerio; experiment: Anti-angiogenic activity in transgenic zebrafish Tg(fli1a:EGFP)y1 1 to 4 cell stage embryo assessed as down-regulation of Tie-1 angiogenic gene expression measured after 24 hrs by real-time PCR analysis; type: functional
Danio rerio [20] = species: Danio rerio; experiment: Anti-angiogenic activity in transgenic zebrafish Tg(fli1a:EGFP)y1 1 to 4 cell stage embryo assessed as down-regulation of Ang-1 angiogenic gene expression measured after 24 hrs by real-time PCR analysis; type: functional
Danio rerio [21] = species: Danio rerio; experiment: Anti-angiogenic activity in transgenic zebrafish Tg(fli1a:EGFP)y1 1 to 4 cell stage embryo assessed as down-regulation of Tie-2 angiogenic gene expression measured after 24 hrs by real-time PCR analysis; type: functional
Danio rerio [22] = species: Danio rerio; experiment: Anti-angiogenic activity in transgenic zebrafish Tg(fli1a:EGFP)y1 1 to 4 cell stage embryo assessed as down-regulation of Ang-2 angiogenic gene expression measured after 24 hrs by real-time PCR analysis; type: functional
Danio rerio [23] = species: Danio rerio; experiment: Anti-angiogenic activity in transgenic zebrafish Tg(fli1a:EGFP)y1 1 to 4 cell stage embryo assessed as inhibition of subintestinal vessel length measured at 25 to 100 uM after 48 hrs by fluorescent microscopy; type: functional, tissue-based
Danio rerio [24] = species: Danio rerio; experiment: Anti-angiogenic activity in transgenic zebrafish Tg(fli1a:EGFP)y1 1 to 4 cell stage embryo assessed as complete inhibition of subintestinal vessels formation measured at 100 uM after 48 hrs by fluorescent microscopy; type: functional, tissue-based
Danio rerio [25] = species: Danio rerio; experiment: Anti-angiogenic activity in transgenic zebrafish Tg(fli1a:EGFP)y1 1 to 4 cell stage embryo assessed as inhibition of subintestinal vessels formation measured after 48 hrs by fluorescent microscopy; type: functional, tissue-based

## C=C1C(=O)O[C@H]2C[C@@H](C)[C@@H]3C=CC(=O)[C@@]3(C)[C@@H](OC(C)=O)[C@H]12 [BIGELOVIN]
HMEC-1 [1]
  Activity: Active
HMEC-1 [2]
  Activity: Active
HMEC-1 [3]
  Activity: Active
[4]
  Activity: Non-toxic
HMEC-1 [5]
  Activity: 67%
HMEC-1 [6]
  Activity: 74%
[7]
  Activity: Non-toxic
  inhibition (INH): Dose-dependent effect
HMEC-1 [8]
  Activity: 76%
HMEC-1 [8]; Homo sapiens
  inhibition: Dose-dependent effect
PBMC [9]
  inhibition: Dose-dependent effect
PBMC [10]
  inhibition: Dose-dependent effect
PBMC [11]
  inhibition: Dose-dependent effect
PBMC [12]
  Activity: Non-toxic
PBMC [13]
  inhibition: Dose-dependent effect
PBMC [14]
  Activity: Active
HMEC-1 [15]
  inhibition: Dose-dependent effect
HMEC-1 [16]
  IC50: 946 nM
HMEC-1 [17]
  IC50: 2680 nM
HMEC-1 [18]
  inhibition: Dose-dependent effect
Danio rerio [19]
  inhibition: inactive
Danio rerio [20]
  inhibition: Active
Danio rerio [21]
  inhibition: Active
Danio rerio [22]
  inhibition: Active
Danio rerio [23]
  inhibition: Active
Danio rerio [24]
  inhibition: Active
Danio rerio [25]
  inhibition: Dose-dependent effect
